Source: patent publication US12178908B2, “Tolerogenic liposomes and methods of use thereof” (AnTolRx, Inc., priority 2018, dated 2024)
Values after ≈ are worked out from the molar mass of the structure shown. Like-named read-outs stand apart in the source and are kept apart here. Values belong to the molecule of their own block, whether it stands above or below them.

How the values were obtained:
[1] = Solubility of ITE in conventional solvents; format: physicochemical
Description: 2-(1H-Indol-3-ylcarbonyl)-4-thiazolecarboxylic acid methyl ester (ITE) is a potent aryl hydrocarbon receptor agonist which is difficult to formulate in nanoparticulate form (including gold and PLGA nanoparticles and many conventional liposomal compositions, for example). […] ITE is also highly prone to self-aggregation.

[2] = tested on: EAE; conditions: cited from earlier work
[3] = format: physicochemical
Procedure: A stability assessment was performed in which liposomes from batch 1 were stored in HBS for one month at 4° C. and re-assayed.
• Lipid ratios were varied in the following range for each lipid: • Egg PC or HEPC: ˜53-72 mol % • Cholesterol: ˜25-44 mol % • PEG2000-PE: 1.5 to 6.25 mol % ITE was fixed at 0.5% by weight to the total lipid mass for all the batches tested. ITE was added from a DMSO stock. Batches were observed daily for any signs of precipitation/aggregation

[4] = tested on: splenocytes of 2D2 mice; experiment: Proliferation of 2D2 splenocytes stimulated in vitro (Cell Titer Blue); format: cell-based; conditions: 10 μg MOG; 1 μg ITE; 72 hours at 37° C.
Procedure: Splenocytes were harvested from 2D2 mice, which express a transgenic 2D2 T cell […] (TCR) specific for MOG35-55 and stimulated in vitro with 10 μg of MOG delivered either freely (Free MOG), loaded in egg-PC liposomes alone (MOG-L) or loaded in egg-PC liposomes and additionally stimulated with ITE-loaded egg-PC liposomes (at a dose of 1 μg ITE). Cell proliferation was assessed after incubation at 37° C. for 72 hours using a Cell Titer Blue cell proliferation assay.

solubility ([1]; ethanol, organic solvent or mixture): ~3300 µM (≈ 945 µg/mL) | solubility ([1]; methanol, organic solvent or mixture): ~3000 µM (≈ 859 µg/mL) | solubility ([1]; water): ~115 µM (≈ 32.9 µg/mL)
Molecule: COC(=O)c1csc(C(=O)c2c[nH]c3ccccc23)n1 [ITE, 2-(1H-Indol-3-ylcarbonyl)-4-thiazolecarboxylic acid methyl ester]
EAE amelioration ([2]; daily 200 μg per mouse, i.p. or orally, Quintana et al. PNAS 2010): ameliorated

Molecule: Clc1cc2c(cc1Cl)Oc1cc(Cl)c(Cl)cc1O2 [TCDD, 2,3,7,8-tetrachlorodibenzo-p-dioxin]
potency relative to ITE in most in vivo studies ([2]; TCDD vs ITE): ~1,000 fold | EAE amelioration ([2]; dose of 100 ng, Quintana et al. Nature 2008): not | EAE amelioration ([2]; dose of 1 μg, Quintana et al. Nature 2008): ameliorated EAE

stability (observation) [3]: in liposome, not stable
Molecule: DMPC

Molecule: Free MOG: MOG35-55 peptide MEVGWYRSPFSRVVHLYRNGK (SEQ ID NO: 82) delivered freely
2D2 cell proliferation [4]: induced 2D2 cell proliferation
